From US4260745A, “3-Halo cephalosporins” (Eli Lilly and Company, priority 1979, dated 1981)
Converted amounts (≈) assume the structure as drawn. Read-outs that look alike come from different tables or passages of the source.

What was measured:
[1] = system: Serratia marcescens; assay: Gradient Plate technique, MIC; format: cell-based; settings: read-out: Minimum Inhibitory Concentration
Excerpt: (§1) The following Table II lists the minimum inhibitory concentration (MIC) for 7-[2-(2-thienyl)acetamido]-3-chloro-3-cephem-4-carboxylic acid against penicillin resistant Staphylococcus both in the presence of and absence of serum. The MIC values were obtained by the Gradient Plate technique carried out essentially as described by Bryson and Szybalski, Science, 116, 45 (1952).
In Table III, below, the MIC values for the test compound of Tables I and II against representative gram-negative organisms is presented. The data were obtained by the Gradient Plate technique.
The minimum inhibitory concentrations for 7-[2-(2-thienyl)acetamido]-3-bromo-3-cephem-4-carboxylic acid against representative gram-negative bacteria is presented in Table VI. The data were obtained by the Gradient Plate Method.
Tables VII and VIII list the minimum inhibitory concentrations of the test compound effective against representative penicillin resistant Staphylococcus strains, while […] the MIC values obtained against representative gram-negative microorganisms. The data were obtained by the Gradient Plate method.

[2] = system: Proteus vulgaris; assay: standard disc-plate method, zone of inhibition; format: cell-based; settings: Table IV, read-out: Zone of Inhibition (diameter in mm)
Excerpt: (§2) The in vitro antimicrobial activity of the 3-halo cephalosporins is illustrated by the data in the following tables. Table I contains the antimicrobial activity for 7-[2-(2-thienyl)acetamido]-3-chloro-3-cephem-4-carboxylic acid obtained in the standard Disc-plate method. The numerical values are the diameter in millimeters of the zones of inhibition observed with the named organisms.
(§3) In Table IV below, the in vitro antimicrobial activity of 7-[2-(2-thienyl)acetamido]-3-bromo-3-cephem-4-carboxylic acid is presented for several illustrative microorganisms. The data presented were obtained in the standard disc-plate method with the numerical values recording the diameter in millimeters of the zones of inhibition observed with the named microorganisms.

[3] = system: Mycobacterium avium; assay: standard disc-plate method, zone of inhibition; format: cell-based; settings: Table IV, read-out: Zone of Inhibition (diameter in mm)
Excerpt: as §2, §3

[4] = system: Sarcina lutea; assay: standard disc-plate method, zone of inhibition; format: cell-based; settings: Micrococcus luteus, Table IV, read-out: Zone of Inhibition (diameter in mm)
Excerpt: as §2, §3

[5] = system: Bacillus subtilis; assay: standard disc-plate method, zone of inhibition; format: cell-based; settings: Table IV, read-out: Zone of Inhibition (diameter in mm); for zone of inhibition at 10 µg/mL: 0.01 mg./ml.; for zone of inhibition at 100 µg/mL: 0.1 mg./ml.; for zone of inhibition at 1000 µg/mL: 1.0 mg./ml.
Excerpt: as §2, §3

[6] = system: Klebsiella pneumoniae; assay: standard disc-plate method, zone of inhibition; format: cell-based; settings: Table IV, read-out: Zone of Inhibition (diameter in mm)
Excerpt: as §2, §3

[7] = system: Staphylococcus aureus; assay: standard disc-plate method, zone of inhibition; format: cell-based; settings: Table IV, read-out: Zone of Inhibition (diameter in mm)
Excerpt: as §2, §3

[8] = system: Escherichia coli; assay: standard disc-plate method, zone of inhibition; format: cell-based; settings: Table IV, read-out: Zone of Inhibition (diameter in mm); for zone of inhibition at 100 µg/mL: 0.1 mg./ml.; for zone of inhibition at 1000 µg/mL: 1.0 mg./ml.
Excerpt: as §2, §3

[9] = system: Neurospora sp.; assay: standard disc-plate method, zone of inhibition; format: cell-based; set-up: key: --: A dash indicates no observed zone of inhibition; hazy zone; settings: Table IV
Excerpt: as §3

[10] = system: Trichophyton mentagrophytes; assay: standard disc-plate method, zone of inhibition; format: cell-based; set-up: key: --: A dash indicates no observed zone of inhibition; hazy zone; settings: Table IV
Excerpt: as §3

[11] = system: Serratia marcescens; assay: standard disc-plate method, zone of inhibition; format: cell-based; set-up: key: --: A dash indicates no observed zone of inhibition; hazy zone; settings: Table IV
Excerpt: as §3

[12] = system: Pseudomonas aeruginosa; assay: standard disc-plate method, zone of inhibition; format: cell-based; set-up: key: --: A dash indicates no observed zone of inhibition; hazy zone; settings: Table IV
Excerpt: as §3

[13] = system: Candida albicans; assay: standard disc-plate method, zone of inhibition; format: cell-based; set-up: key: --: A dash indicates no observed zone of inhibition; hazy zone; settings: Table IV
Excerpt: as §3

[14] = system: Saccharomyces pastorianus; assay: standard disc-plate method, zone of inhibition; format: cell-based; set-up: key: --: A dash indicates no observed zone of inhibition; hazy zone; settings: Table IV
Excerpt: as §3

[15] = system: Penicillin Resistant Staphylococcus; assay: Gradient Plate technique, MIC; format: cell-based; settings: read-out: Minimum Inhibitory Concentration
Excerpt: as §1, with “(1952). […]” for “(1952).”

[16] = system: Escherichia coli; assay: standard disc-plate method, zone of inhibition; format: cell-based; set-up: key: --: A dash indicates no observed zone of inhibition; hazy zone; settings: 0.01 mg./ml.; Table IV
Excerpt: as §2, §3

[17] = system: Methicillin resistant Staphylococcus; assay: Gradient Plate technique, MIC; format: cell-based; settings: Staphylococcus; Clinical Isolate X400 (methicillin resistant); No Serum; read-out: Minimum Inhibitory Concentration
[18] = system: Pseudomonas solanacearcum; assay: standard disc-plate method, zone of inhibition; format: cell-based; set-up: key to Zone of Inhibition (diameter in mm): --: A dash indicates no observed zone of inhibition; hazy zone; settings: Table IV
Excerpt: as §2, §3

[19] = system: Salmonella gallinarum; assay: standard disc-plate method, zone of inhibition; format: cell-based; set-up: key to Zone of Inhibition (diameter in mm): --: A dash indicates no observed zone of inhibition; hazy zone; settings: Table IV
Excerpt: as §2, §3

[20] = Electrometric titration; format: physicochemical; settings: 66% aqueous dmf; only or first pKa; read-out: pKa

Work on `O=C(Cc1cccs1)NC1C(=O)N2C(C(=O)O)=C(Br)CS[C@H]12` (stereo partly shown) [7-[2-(2-Thienyl)acetamido]-3-bromo-3-cephem-4-carboxylic acid] yielded an MIC [1] greater than 200 µg/mL, a zone of inhibition at 10 µg/mL ([2]; 0.01 mg./ml., hazy zone (h)) of 11 mm and a zone of inhibition at 100 µg/mL ([2]; 0.1 mg./ml.) of 20 mm. For the same molecule, the zone of inhibition at 1000 µg/mL ([2]; 1.0 mg./ml.) was 28 mm, the zone of inhibition at 10 µg/mL ([3]; 0.01 mg./ml., hazy zone (h)) was 33 mm and the zone of inhibition at 100 µg/mL ([3]; 0.1 mg./ml., hazy zone (h)) was 42 mm. The zone of inhibition at 1000 µg/mL ([3]; 1.0 mg./ml.) was 23 mm, the zone of inhibition at 10 µg/mL ([4]; 0.01 mg./ml.) was 17 mm and the zone of inhibition at 100 µg/mL ([4]; 0.1 mg./ml.) was 33 mm. It also gave a zone of inhibition at 1000 µg/mL ([4]; 1.0 mg./ml.) of 32 mm, a zone of inhibition at 10 µg/mL ([5]; Synthetic medium) of 43 mm and a zone of inhibition at 10 µg/mL [5] of 23 mm. The zone of inhibition at 100 µg/mL ([5]; Synthetic medium) was 50 mm, the zone of inhibition at 100 µg/mL [5] was 38 mm and the zone of inhibition at 1000 µg/mL ([5]; Synthetic medium) was 60 mm. The zone of inhibition at 1000 µg/mL [5] was 37 mm, the zone of inhibition at 10 µg/mL ([6]; 0.01 mg./ml.) was 11 mm and the zone of inhibition at 100 µg/mL ([6]; 0.1 mg./ml.) was 19 mm. The zone of inhibition at 1000 µg/mL ([6]; 1.0 mg./ml.) was 28 mm, the zone of inhibition at 10 µg/mL ([7]; 0.01 mg./ml.) was 22 mm and the zone of inhibition at 100 µg/mL ([7]; 0.1 mg./ml.) was 25 mm. It also gave a zone of inhibition at 1000 µg/mL ([7]; 1.0 mg./ml.) of 27 mm, a zone of inhibition at 10 µg/mL ([8]; 0.01 mg./ml., Synthetic medium, hazy zone (h)) of 11 mm and a zone of inhibition at 100 µg/mL ([8]; Synthetic medium) of 18 mm. It also gave a zone of inhibition at 100 µg/mL [8] of 14 mm, a zone of inhibition at 1000 µg/mL ([8]; Synthetic medium) of 27 mm and a zone of inhibition at 1000 µg/mL [8] of 23 mm. The “Zone of Inhibition (diameter in mm)” value ([9]; 0.01 mg./ml.) was “--”, the “Zone of Inhibition (diameter in mm)” value ([9]; 0.1 mg./ml.) was “--” and the “Zone of Inhibition (diameter in mm)” value ([9]; 1.0 mg./ml.) was “--”. The “Zone of Inhibition (diameter in mm)” value ([10]; 0.01 mg./ml.) was “--”, the “Zone of Inhibition (diameter in mm)” value ([10]; 0.1 mg./ml.) was “--” and the “Zone of Inhibition (diameter in mm)” value ([10]; 1.0 mg./ml.) was “--”. The “Zone of Inhibition (diameter in mm)” value ([11]; 0.01 mg./ml.) was “--”, the “Zone of Inhibition (diameter in mm)” value ([11]; 0.1 mg./ml.) was “--” and the “Zone of Inhibition (diameter in mm)” value ([11]; 1.0 mg./ml.) was “--”. For the same molecule, the “Zone of Inhibition (diameter in mm)” value ([12]; 0.01 mg./ml.) was “--”, the “Zone of Inhibition (diameter in mm)” value ([12]; 0.1 mg./ml.) was “--” and the “Zone of Inhibition (diameter in mm)” value ([12]; 1.0 mg./ml.) was “--”. For the same molecule, the “Zone of Inhibition (diameter in mm)” value ([13]; 0.01 mg./ml.) was “--”, the “Zone of Inhibition (diameter in mm)” value ([13]; 0.1 mg./ml.) was “--” and the “Zone of Inhibition (diameter in mm)” value ([13]; 1.0 mg./ml.) was “--”. For the same molecule, the “Zone of Inhibition (diameter in mm)” value ([14]; 0.01 mg./ml.) was “--”, the “Zone of Inhibition (diameter in mm)” value ([14]; 0.1 mg./ml.) was “--” and the “Zone of Inhibition (diameter in mm)” value ([14]; 1.0 mg./ml.) was “--”. It also gave an MIC ([15]; Clinical Isolate V 32, No Serum) of 0.6 µg/mL (≈ 1.49 µM), an MIC ([15]; Clinical Isolate V 41, No Serum) of 0.5 µg/mL (≈ 1.24 µM) and an MIC ([15]; Clinical Isolate V 84, No Serum) of 0.4 µg/mL (≈ 0.992 µM). For the same molecule, the MIC ([15]; Clinical Isolate X 1.1, No Serum) was 0.3 µg/mL (≈ 0.744 µM), the “Zone of Inhibition (diameter in mm)” value [16] was “--” and the MIC [17] was greater than 20 µg/mL. For the same molecule, the “Zone of Inhibition (diameter in mm)” value ([18]; 0.01 mg./ml.) was “--”, the zone of inhibition at 100 µg/mL ([18]; Pseudomonas, 0.1 mg./ml., hazy zone (h), read-out: Zone of Inhibition (diameter in mm)) was 20 mm and the zone of inhibition at 1000 µg/mL ([18]; Pseudomonas, 1.0 mg./ml., read-out: Zone of Inhibition (diameter in mm)) was 31 mm. For the same molecule, the “Zone of Inhibition (diameter in mm)” value ([19]; 0.01 mg./ml.) was “--”, the zone of inhibition at 100 µg/mL ([19]; Salmonella enterica, GALLINARUM, 0.1 mg./ml., read-out: Zone of Inhibition (diameter in mm)) was 15 mm and the zone of inhibition at 1000 µg/mL ([19]; Salmonella enterica, GALLINARUM, 1.0 mg./ml., read-out: Zone of Inhibition (diameter in mm)) was 30 mm. The pKa [20] was 4.4.
